Columns and labels:
UACC-257 = assay: NCI human tumor cell panel: UACC-257 (Melanoma); type: cell-based
SK-OV-3 = assay: NCI human tumor cell panel: SK-OV-3 (Ovarian Cancer); type: cell-based; conditions: SK-OV-3, read-out: Log10 GI50 (converted)
T-47D = assay: NCI human tumor cell panel: T-47D (Breast Cancer); type: cell-based; conditions: T47D
SF-268 = assay: NCI human tumor cell panel: SF-268 (CNS Cancer); type: cell-based
MCF7 = assay: NCI human tumor cell panel: MCF7 (Breast Cancer); type: cell-based
CAKI-1 = assay: NCI human tumor cell panel: CAKI-1 (Renal Cancer); type: cell-based
MCF7/ADR-RES = assay: NCI human tumor cell panel: MCF7/ADR-RES (Breast Cancer); type: cell-based
A498 = assay: NCI human tumor cell panel: A498 (Renal Cancer); type: cell-based
SK-MEL-5 = assay: NCI human tumor cell panel: SK-MEL-5 (Melanoma); type: cell-based; conditions: SK-MEL-5, read-out: Log10 TGI (converted)
HCC-2998 = assay: NCI human tumor cell panel: HCC-2998 (Colon Cancer); type: cell-based
MDA-MB-231/ATCC = assay: NCI human tumor cell panel: MDA-MB-231/ATCC (Breast Cancer); type: cell-based; conditions: Homo sapiens, MDA-MB-231, MDA-MB-231/ATCC
NCI-H226 = assay: NCI human tumor cell panel: NCI-H226 (Non-Small Cell Lung Cancer); type: cell-based
NCI-H460 = assay: NCI human tumor cell panel: NCI-H460 (Non-Small Cell Lung Cancer); type: cell-based
COLO 205 = assay: NCI human tumor cell panel: COLO 205 (Colon Cancer); type: cell-based
KM12 = assay: NCI human tumor cell panel: KM12 (Colon Cancer); type: cell-based
SR = assay: NCI human tumor cell panel: SR (Leukemia); type: cell-based
TK-10 = assay: NCI human tumor cell panel: TK-10 (Renal Cancer); type: cell-based
HL-60(TB) = assay: NCI human tumor cell panel: HL-60(TB) (Leukemia); type: cell-based
RXF-393 = assay: NCI human tumor cell panel: RXF-393 (Renal Cancer); type: cell-based
SK-MEL-2 = assay: NCI human tumor cell panel: SK-MEL-2 (Melanoma); type: cell-based
MDA-MB-435 = assay: NCI human tumor cell panel: MDA-MB-435 (Breast Cancer); type: cell-based
M14 = assay: NCI human tumor cell panel: M14 (Melanoma); type: cell-based
[1] = test system: panel of sixty different human tumor cell lines; assay: NCI human tumor cell panel: whole panel (mean graph summary); conditions: whole panel
K-562 = assay: NCI human tumor cell panel: K-562 (Leukemia); type: cell-based
NCI-H322M = assay: cells; type: cell-based; conditions: Homo sapiens
SK-MEL-28 = assay: NCI human tumor cell panel: SK-MEL-28 (Melanoma); type: cell-based
OVCAR-5 = assay: NCI human tumor cell panel: OVCAR-5 (Ovarian Cancer); type: cell-based
[2] = read-out: Log10 GI50 (converted)
[3] = read-out: Log10 TGI (converted)

Work on `OCc1ccc(-c2ccc(-c3ccc(CO)s3)[se]2)s1` [compound 675343] yielded a GI50 (UACC-257; UACC-257, read-out: Log10 GI50 (converted)) of under 0.01 µM, an IC (TGI) (UACC-257; UACC-257, read-out: Log10 TGI (converted)) of under 0.01 µM and a GI50 (SK-OV-3) of over 100 µM. The GI50 (T-47D; [2]) was 0.724 µM, the IC (TGI) (T-47D; [3]) was over 100 µM and the GI50 (SF-268; SF-268, read-out: Log10 GI50 (converted)) was over 100 µM. For the same molecule, the IC (TGI) (SF-268; SF-268, read-out: Log10 TGI (converted)) was over 100 µM, the GI50 (MCF7; MCF7, read-out: Log10 GI50 (converted)) was under 0.01 µM and the IC (TGI) (MCF7; MCF7, read-out: Log10 TGI (converted)) was over 100 µM. The GI50 (CAKI-1; CAKI-1, read-out: Log10 GI50 (converted)) was under 0.01 µM, the IC (TGI) (CAKI-1; CAKI-1, read-out: Log10 TGI (converted)) was under 0.01 µM and the GI50 (MCF7/ADR-RES; [2]) was over 100 µM. The IC (TGI) (MCF7/ADR-RES; [3]) was over 100 µM, the GI50 (A498; A498, read-out: Log10 GI50 (converted)) was under 0.01 µM and the IC (TGI) (A498; A498, read-out: Log10 TGI (converted)) was under 0.01 µM. It also gave an IC (TGI) (SK-MEL-5) of over 100 µM, a GI50 (HCC-2998; HCC-2998, read-out: Log10 GI50 (converted)) of under 0.01 µM and an IC (TGI) (HCC-2998; HCC-2998, read-out: Log10 TGI (converted)) of 3.39 µM. The GI50 (MDA-MB-231/ATCC; [2]) was over 100 µM, the IC (TGI) (MDA-MB-231/ATCC; [3]) was over 100 µM and the GI50 (NCI-H226; NCI-H226, read-out: Log10 GI50 (converted)) was under 0.01 µM. For the same molecule, the IC (TGI) (NCI-H226; NCI-H226, read-out: Log10 TGI (converted)) was 0.0724 µM, the GI50 (NCI-H460; NCI-H460, read-out: Log10 GI50 (converted)) was under 0.01 µM and the IC (TGI) (NCI-H460; NCI-H460, read-out: Log10 TGI (converted)) was over 100 µM. For the same molecule, the GI50 (COLO 205; COLO 205, read-out: Log10 GI50 (converted)) was under 0.01 µM, the IC (TGI) (COLO 205; COLO 205, read-out: Log10 TGI (converted)) was 1.05 µM and the GI50 (KM12; KM12, read-out: Log10 GI50 (converted)) was over 100 µM. It also gave an IC (TGI) (KM12; KM12, read-out: Log10 TGI (converted)) of over 100 µM, a GI50 (SR; [2]) of over 100 µM and an IC (TGI) (SR; [3]) of over 100 µM. The GI50 (TK-10; TK-10, read-out: Log10 GI50 (converted)) was under 0.01 µM, the IC (TGI) (TK-10; TK-10, read-out: Log10 TGI (converted)) was under 0.01 µM and the GI50 (HL-60(TB); [2]) was 61.7 µM. It also gave an IC (TGI) (HL-60(TB); read-out: Log10 TGI) of over 100 µM, a GI50 (RXF-393; RXF-393, read-out: Log10 GI50 (converted)) of 20.9 µM and an IC (TGI) (RXF-393; RXF-393, read-out: Log10 TGI (converted)) of over 100 µM. It also gave a GI50 (SK-MEL-2; SK-MEL-2, read-out: Log10 GI50 (converted)) of over 100 µM, an IC (TGI) (SK-MEL-2; SK-MEL-2, read-out: Log10 TGI (converted)) of over 100 µM and a GI50 (MDA-MB-435; MDA-MB-435, read-out: Log10 GI50 (converted)) of over 100 µM. The IC (TGI) (MDA-MB-435; MDA-MB-435, read-out: Log10 TGI (converted)) was over 100 µM, the GI50 (M14; M14, read-out: Log10 GI50 (converted)) was over 100 µM and the IC (TGI) (M14; M14, read-out: Log10 TGI (converted)) was over 100 µM. The “Log10 GI50, Delta” value [1] was −5.36, the “Log10 LC50, Delta” value [1] was −4.06 and the “Log10 TGI, Delta” value [1] was −4.41. For the same molecule, the “Log10 TGI, Range” value [1] was 3.59, the GI50 (K-562; K562, K-562, read-out: Log10 GI50 (converted)) was under 0.01 µM and the IC (TGI) (K-562; K562, K-562, read-out: Log10 TGI (converted)) was 26.3 µM. The GI50 (NCI-H322M; [2]) was 9.77 µM, the IC (TGI) (NCI-H322M; [3]) was over 100 µM and the GI50 (SK-MEL-28; SK-MEL-28, read-out: Log10 GI50 (converted)) was over 100 µM. It also gave an IC (TGI) (SK-MEL-28; SK-MEL-28, read-out: Log10 TGI (converted)) of over 100 µM, a GI50 (OVCAR-5; OVCAR-5, read-out: Log10 GI50 (converted)) of 0.158 µM and an IC (TGI) (OVCAR-5; OVCAR-5, read-out: Log10 TGI (converted)) of over 100 µM.

Reference: patent US20040063662A1, “Selenophene anti-tumor agents” (priority 1996, published 2004)
